{"source": "patent US20160346219A1", "about": "“PHOSPHOLIPID-COATED THERAPEUTIC AGENT NANOPARTICLES AND RELATED METHODS” (Autotelic LLC, priority 2015, published 2016)", "test": "Screening of lyoprotectants for stabilization of nanoparticles on lyophilization (particle size before lyophilization and after reconstitution)", "type": "physicochemical", "details": "single lyoprotectant, amounts 5-20% (FIG. 15)", "text": "FIG. 15 compares particle size as a function of lyoprotectant and lyoprotectant amount for representative phospholipid-coated therapeutic agent (paclitaxel) nanoparticles of the invention, PC-coated paclitaxel nanoparticle manufactured by thin film-hydration method (LM-101), before lyophilization and after reconstitution.", "data": [{"smiles": "OC[C@H]1O[C@H](O[C@H]2O[C@H](CO)[C@@H](O)[C@H](O)[C@H]2O)[C@H](O)[C@@H](O)[C@@H]1O", "note": "[Trehalose]", "values": [{"measurement": "stabilization of particles on lyophilization (lyoprotectant)", "value": "best in stabilizing the particles on lyophilization"}]}]}
